Data: patent US6355799B1, “Substituted benzene compounds, process for their preparation, and herbicidal and defoliant compositions containing them” (ISK Americas Incorporated, priority 1997, dated 2002)

Key:
Type in all cases: in vivo
[1] = test system: large crabgrass (Digitaria sanguinalis, DIGSA); assay: Post-emerge test, greenhouse herbicide activity screening; settings: post-emerge, 14 days after application, rating scale 0-100
Procedure, shortened: (§1)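 Fourteen days after spraying, crop and weed injury was graded visually from 0, no effect, to 100, every plant dead. Test substances were dissolved in acetone and applied at 15–1000 g ai/ha with a flat-fan nozzle. Application was either pre-emergence, one day after sowing, or post-emergence at the 2–3 leaf stage.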

[2] = test system: green foxtail (Setaria viridis, SETVI); assay: as above; settings: post-emerge, 14 days after application, rating scale 0-100
Procedure, shortened: as §1

[3] = test system: common ragweed (Ambrosia artemisizfolia L., AMBEL); assay: as above; settings: post-emerge, 14 days after application, rating scale 0-100
Procedure, shortened: as §1

[4] = test system: ivyleaf morningglory (Ipomoea hederacea, IPOHE); assay: as above; settings: post-emerge, 14 days after application, rating scale 0-100
Procedure, shortened: as §1

[5] = test system: barnyardgrass (Echinochloa crus-galli, ECHCG); assay: as above; settings: post-emerge, 14 days after application, rating scale 0-100
Procedure, shortened: as §1

[6] = test system: redroot pigweed (Amaranthus retroflexus, AMARE); assay: as above; settings: post-emerge, 14 days after application
Procedure, shortened: as §1

[7] = test system: sicklepod (Cassia obtusifolia, CASOB); assay: as above; settings: post-emerge, 14 days after application, rating scale 0-100
Procedure, shortened: as §1

[8] = test system: lambsquarters (Chenopodium album, CHEAL); assay: as above; settings: post-emerge, 14 days after application, rating scale 0-100
Procedure, shortened: as §1

[9] = test system: velvetleaf (Abutilon theophrasti, ABUTH); assay: as above; settings: post-emerge, 14 days after application, rating scale 0-100
Procedure, shortened: as §1

[10] = test system: upland rice (Oryza sp., var. Tebonnet, RICE); assay: Pre-emerge test, crop safety; settings: pre-emerge, 14 days after application, rating scale 0-100
Procedure, shortened: (§2)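 Sandy loam pots; pre-emerge: sown 1 d pre-spray, surface-watered after, then bottom-watered. Post-emerge: sown 8–21 d before, 2–3 leaf stage, + 0.25% v/v NIS, bottom-watered. Acetone, 187 l/ha track spray, 15–1000 g ai/ha. 0–100 injury score, day 14.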

[11] = test system: field corn (Zea mays L., var. Dekalb 535, CORN); assay: Pre-emerge test, crop safety; settings: pre-emerge, 14 days after application, rating scale 0-100
Procedure, shortened: as §2

[12] = test system: upland rice (Oryza sp., var. Tebonnet, RICE); assay: Post-emerge test, crop safety; settings: post-emerge, 14 days after application, rating scale 0-100
Procedure, shortened: (§3)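 Herbicidal damage is scored 0 (none) to 100 (complete plant death) two weeks after a simulated field spray. Rates span 15–1000 g ai/ha, delivered in acetone at 187 l/ha. For post-emergence treatments, plants have 2–3 leaves and the spray carries 0.25% v/v non-ionic surfactant.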

[13] = test system: field corn (Zea mays L., var. Dekalb 535, CORN); assay: Post-emerge test, crop safety; settings: post-emerge, 14 days after application, rating scale 0-100
Procedure, shortened: as §3

[14] = test system: redroot pigweed (Amaranthus retroflexus, AMARE); assay: Pre-emerge test, greenhouse herbicide activity screening; settings: pre-emerge, 14 days after application, rating scale 0-100
Procedure, shortened: as §2

[15] = test system: large crabgrass (Digitaria sanguinalis, DIGSA); assay: as above; settings: pre-emerge, 14 days after application, rating scale 0-100
Procedure, shortened: as §3

[16] = test system: green foxtail (Setaria viridis, SETVI); assay: as above; settings: pre-emerge, 14 days after application, rating scale 0-100
Procedure, shortened: as §3

[17] = test system: common ragweed (Ambrosia artemisizfolia L., AMBEL); assay: as above; settings: pre-emerge, 14 days after application, rating scale 0-100
Procedure, shortened: as §3

[18] = test system: ivyleaf morningglory (Ipomoea hederacea, IPOHE); assay: as above; settings: pre-emerge, 14 days after application, rating scale 0-100
Procedure, shortened: as §3

[19] = test system: barnyardgrass (Echinochloa crus-galli, ECHCG); assay: as above; settings: pre-emerge, 14 days after application, rating scale 0-100
Procedure, shortened: as §3

[20] = test system: johnsongrass (Sorghum halepense, SORHA); assay: as above; settings: pre-emerge, 14 days after application, rating scale 0-100
Procedure, shortened: as §3

[21] = test system: sicklepod (Cassia obtusifolia, CASOB); assay: as above; settings: pre-emerge, 14 days after application, rating scale 0-100
Procedure, shortened: as §3

[22] = test system: lambsquarters (Chenopodium album, CHEAL); assay: as above; settings: pre-emerge, 14 days after application, rating scale 0-100
Procedure, shortened: as §3

[23] = test system: velvetleaf (Abutilon theophrasti, ABUTH); assay: as above; settings: pre-emerge, 14 days after application, rating scale 0-100
Procedure, shortened: as §3

CCOC(=O)C(Cl)Cc1c(OCC)c(Cl)cc(F)c1-n1c(=O)cc(C(F)(F)F)n(C)c1=O (stereo not shown) [14-63]
50: Post-emerge Herbicidal Activity SETVI (phytotoxicity rating) ([2]; 63 g ai/ha) | Post-emerge Herbicidal Activity AMBEL (phytotoxicity rating) ([3]; 250 g ai/ha) | phytotoxicity rating ECHCG ([19]; 250 g ai/ha) | phytotoxicity rating CASOB ([21]; 250 g ai/ha)
40: Post-emerge Herbicidal Activity DIGSA (phytotoxicity rating) ([1]; 63 g ai/ha)
5: Post-emerge Herbicidal Activity RICE (crop damage rating) ([12]; 63 g ai/ha)
90: Post-emerge Herbicidal Activity DIGSA (phytotoxicity rating) ([1]; 250 g ai/ha) | Post-emerge Herbicidal Activity ABUTH (phytotoxicity rating) ([9]; 63 g ai/ha)
20: Post-emerge Herbicidal Activity AMBEL (phytotoxicity rating) ([3]; 63 g ai/ha) | phytotoxicity rating SORHA ([20]; 250 g ai/ha)
35: Post-emerge Herbicidal Activity CORN (crop damage rating) ([13]; 63 g ai/ha)
15: Post-emerge Herbicidal Activity RICE (crop damage rating) ([12]; 250 g ai/ha)
100: Post-emerge Herbicidal Activity ECHCG (phytotoxicity rating) ([5]; 63 g ai/ha) | Post-emerge Herbicidal Activity AMARE (phytotoxicity rating) ([6]; 250 g ai/ha, rating scale 0-100) | Post-emerge Herbicidal Activity CASOB (phytotoxicity rating) ([7]; 250 g ai/ha) | Post-emerge Herbicidal Activity CHEAL (phytotoxicity rating) ([8]; 250 g ai/ha) | Post-emerge Herbicidal Activity ABUTH (phytotoxicity rating) ([9]; 250 g ai/ha) | phytotoxicity rating AMARE ([14]; 250 g ai/ha) | phytotoxicity rating DIGSA ([15]; 250 g ai/ha) | phytotoxicity rating ABUTH ([23]; 250 g ai/ha)
60: phytotoxicity rating AMBEL ([17]; 250 g ai/ha)
99: Post-emerge Herbicidal Activity ECHCG (phytotoxicity rating) ([5]; 250 g ai/ha) | phytotoxicity rating AMARE ([14]; 63 g ai/ha) | phytotoxicity rating SETVI ([16]; 250 g ai/ha) | phytotoxicity rating CHEAL ([22]; 250 g ai/ha)
95: Post-emerge Herbicidal Activity AMARE (phytotoxicity rating) ([6]; 63 g ai/ha, rating scale 0-100 (0 no damage, 100 complete death)) | Post-emerge Herbicidal Activity CASOB (phytotoxicity rating) ([7]; 63 g ai/ha)
30: phytotoxicity rating SETVI ([16]; 63 g ai/ha)
80: Post-emerge Herbicidal Activity CHEAL (phytotoxicity rating) ([8]; 63 g ai/ha) | Post-emerge Herbicidal Activity CORN (crop damage rating) ([13]; 250 g ai/ha) | phytotoxicity rating CHEAL ([22]; 63 g ai/ha)
0: phytotoxicity rating RICE ([10]; 63 g ai/ha) | phytotoxicity rating RICE ([10]; 250 g ai/ha) | phytotoxicity rating CORN ([11]; 63 g ai/ha) | phytotoxicity rating CORN ([11]; 250 g ai/ha) | phytotoxicity rating AMBEL ([17]; 63 g ai/ha) | phytotoxicity rating IPOHE ([18]; 63 g ai/ha) | phytotoxicity rating IPOHE ([18]; 250 g ai/ha) | phytotoxicity rating ECHCG ([19]; 63 g ai/ha) | phytotoxicity rating SORHA ([20]; 63 g ai/ha) | phytotoxicity rating CASOB ([21]; 63 g ai/ha)
70: Post-emerge Herbicidal Activity SETVI (phytotoxicity rating) ([2]; 250 g ai/ha) | Post-emerge Herbicidal Activity IPOHE (phytotoxicity rating) ([4]; 63 g ai/ha) | Post-emerge Herbicidal Activity IPOHE (phytotoxicity rating) ([4]; 250 g ai/ha) | phytotoxicity rating DIGSA ([15]; 63 g ai/ha) | phytotoxicity rating ABUTH ([23]; 63 g ai/ha)
